The values below come from patent US9556113B2, “Combination uses of dichloroacetate and oxamate, and their prodrugs, for cancer treatment” (The South Dakota Board of Regents, priority 2014, dated 2017).

The structures appear in SMILES notation.

Series [1] in a line: Chemical stability (hydrolysis) in aqueous acetonitrile, HPLC. The format is physicochemical. The following applies: water:acetonitrile 1:1, ambient temperature, in 4 hours, 0.4 mg/mL. As for the experimental part:
FIG. 15 provides a graph of the hydrolysis of prodrug 1 (FIG. 15A) and prodrug 2 (FIG. 15B) in aqueous acetonitrile solution. Prodrug 1 or prodrug 2 (0.42 mg/mL) in aqueous acetonitrile (H2O:CH3CN=1:1) was stirred at ambient temperature. Aliquots were withdrawn and analyzed for the prodrug by HPLC as described in the experimental section.
Once the two prodrugs were obtained, their chemical stability and metabolic stability were determined. The chemical stability of prodrug 1 and prodrug 2 was determined in aqueous acetonitrile at ambient temperature. The prodrug (0.4 mg/mL) a mixture of water and acetonitrile (1:1) at ambient temperature. Aliquots were taken from the solution periodically and checked by HPLC for the presence of the prodrug. The HPLC analysis was carried out on a Beckman Coulter HPLC (System Gold) system, controlled by a system controller (32 Karat workstation with PC), equipped with a 125 gradient pumping module, a 508 autosampler with a sample cooling system, and a 168 photodiode array detector. The HPLC conditions employed an Apollo C18 column (250 mm×4.6 mm i.d., 5 μm) (Alltech, Deerfield, Ill.) and aqueous acetonitrile (50% with 0.1% TFA) as the mobile phase. The flow rate was 0.8 mL/min and the detection wavelength was 210 nm. Under the condition, the retention time for prodrugs 1 and 2 was 9.83 and 9.87 minutes respectively. […]

The subject of the next series is E6E7/Ras cells. As to the kind of experiment: Lactate secretion into culture medium, enzyme based assay. The format is cell-based, mouse. Particulars: 5 mM each, 4 hours. As for the experimental part: FIG. 5 illustrates the reduction of lactate secretion in cultured cells by prodrugs AT-N4-001 and AT-N4-002. E6E7Ras cells were plated in 100 mm dishes and grown to confluence. The medium was changed to bicarbonate-free DMEM-10% FBS with or without the indicated treatments (5 mM each). Four hours later the medium was collected and lactate was measured using an enzyme based assay from Eton Bioscience. Con indicates the control samples for the DCA and Oxamate samples. DMSO indicates the vehicle only control for the AT-N4-001 and AT-N4-002 prodrug samples.
AT-N4-001 and AT-N4-002 should each release two molecules of DCA and one molecule of oxamate. Both DCA and oxamate are expected to reduce cellular lactate production. Therefore, we examined the changes in lactate after treatment of E6E7/Ras cells with the prodrugs. E6E7/Ras cells were seeded into 100 mm dishes and the next day treated with 5 mM AT-N4-001, 5 mM AT-N4-002, 5 mM DCA plus 5 mM oxamate, or 5 mM DCA alone. Culture medium was collected after 4 hours of treatment and lactate levels were determined (FIG. 5). […] To confirm the effects of these compounds on lactate production, the extra cellular acidification rate (ECAR) was measured using a Seahorse XF24 Extracellular Flux analyzer. Since lactate is transported from cells together with a proton, acidification of the culture medium (ECAR) is an estimate of lactate production and the glycolytic rate of cells. In the experiment shown in FIG. 6A, ECAR measurements were initiated in the absence of glucose. At point A, glucose was added and ECAR measurements continued. […] At point B, additional glucose along with vehicle (control), DCA plus oxamate, or AT-N4-002 was added. […] This is shown by a bar graph in FIG. 6B.

With `NC(=O)C(=O)OC(COC(=O)C(Cl)Cl)COC(=O)C(Cl)Cl` [AT-N4-001, 2-(2-Amino-2-oxoacetoxy)propane-1,3-diyl bis(2,2-dichloroacetate)], in series [1], the hydrolysis of prodrug result is recorded as “about 10%”. In the series with E6E7/Ras cells, the “lactate production (culture medium, FIG. 5)” value is “significantly reduce lactate production”.
For `NC(=O)C(=O)OCC(COC(=O)C(Cl)Cl)OC(=O)C(Cl)Cl` (stereo not shown) [AT-N4-002, 3-(2-amino-2-oxoacetoxy)propane-1,2-diyl bis(2,2-dichloroacetate)], the hydrolysis of prodrug entry in series [1] was “about 10%”. The “lactate production (culture medium, FIG. 5)” value in the series with E6E7/Ras cells is “significantly reduce lactate production”.
